According to PMC5665643, “CHIP as a membrane-shuttling proteostasis sensor” (eLife, 2017):
Entries after “also recorded” stand apart in the source; their conditions may differ.

Assays:
CHIP [1] = conditions: steroid detergent deoxycholate, monomerization; ref Nikolay et al., 2004; cited from earlier work
Description: Since lipid binding can influence the activity of enzymes ([Fang et al., 2001]; [Leonard and Hurley, 2011]), we sought to assess the ubiquitylation function of CHIP upon interaction with membranes. […] First, CHIP remained dimeric and was still capable of oligomerization (Figure 4a).

recombinant CHIP = test: Chemical crosslinking of recombinant CHIP in vitro; assay type: biochemical, Human; conditions: sodium deoxycholate, Coomassie Blue-stained reducing SDS-PAGE
Description: (§1) Human recombinant full length CHIP and its truncated versions were purified from Escherichia coli BL21 cells using Glutathion Sepharose 4B (GE Healthcare). Sepharose-bound GST-CHIP was subjected to overnight treatment with PreScission protease and the released tag-free protein was collected. Size exclusion chromatography on a HiLoad Superdex 200 column (GE Healthcare) followed to ensure the purity and homogeneity of proteins. All CHIP variants were kept in HSP70 buffer (25 mM HEPES KOH pH 7.5, 150 mM KCl, 5 mM MgCl2, 5% glycerol, 1 mM DTT).
5 µM of recombinant CHIP were crosslinked with 0.025% glutaraldehyde for 10 min at 30°C unless indicated otherwise. Crosslinking reaction was quenched with 100 mM Tris HCl pH 7.5 for 10–15 min at RT. Where indicated, HSP70 peptide at 800 μM was pre-incubated at 30°C for 20 min before adding glutaraldehyde. Crosslinking on 20% PA-containing liposomes was performed after centrifugation on the resuspended pellet. For CHIP monomerization, fresh 10% sodium deoxycholate stock solution was used. Crosslinks were analyzed with SDS-PAGE and CBB staining.

CHIP [2] = test: Lipid-binding assay (membrane-immobilized lipids, lipid arrays); design: species or system Human; conditions: lipid strips/PIP strips, 0.5 µg/ml wild-type chaperone-free CHIP, 1 hr at RT, anti-C-CHIP antibody
Description: as §1
Membrane-immobilized lipids (Membrane lipid strips P-6002 and PIP strips P-6001) were purchased from Echelon Research Laboratories. The strips were incubated with blocking buffer (3% fatty acid free BSA, 0.1% (v/v) Tween-20 in PBS pH 7.5) for 1 hr at RT. 0.5 µg/ml of purified wild-type or mutant CHIP was added in blocking buffer and incubated for 1 hr at RT. Strips were washed and bound proteins were detected using anti-C-CHIP antibody. For competition experiments, ten times molar excess of C-terminal HSP70 was added to CHIP in blocking buffer.

CHIP [3] = test: Liposome pelleting assay, effect of lipids and HSP70-C on CHIP association; assay type: binding, Human; conditions: 2 mM liposomes, 2 µM CHIP, 30 min at 37°C, N = 3
Description: as §1
Human C-terminal HSP70 6xHis-tagged N-terminally was purified from Escherichia coli BL21 cells using 1 ml HisTrap column (GE Healthcare). Bound protein was eluted by applying an imidazole gradient. Fractions containing the protein were subjected to size exclusion chromatography using HiLoad Superdex 200 in HSP70 buffer. His-NQO1, His-UbcH5a, His-Uev1a and His-Ubc13 were purified similarly except that PBS/1 mM DTT was used during size exclusion chromatography. Purity of recombinant protein was evaluated by SDS-PAGE and Coomassie BB G-250 (CBB) staining. Concentration of proteins was determined measuring absorbance at 280 nm and using ProtParam (ExPASy) to calculate respective extinction coefficients. Proteins were aliquoted, snap-frozen and stored at −80°C.
Liposomes were prepared by mixing 1,2-dioleoyl-sn-glycero-3-phosphocholine (DOPC) with indicated amount (wt/wt) of either 1,2-dipalmitoyl-sn-glycero-3-phosphate (phosphatidic acid) or (wt/wt) 1,2-dipalmitoyl-sn-glycero-3-phosphoinositol-4-phosphate (PI4P) in a 1.5 ml reaction tube (Eppendorf). Lipid mixtures were dried under a nitrogen stream and kept for 1 hr under vacuum. Liposomes were rehydrated in 1 ml filtered reconstitution buffer (25 mM HEPES KOH pH 7.5, 50 mM NaCl) to a concentration of 10 mM lipids. Liposomes were reconstituted by shaking at 2000 rpm for 1 hr at 50°C, followed by sonication for 1 hr at 50°C in a water bath. The liposome suspension was subjected to five freeze-thaw cycles in liquid nitrogen to promote unilamellar vesicle formation, aliquoted in 200 µl and pulse-sonicated for 8 s at 45% output with MS72 sonotrode (Bandelin) to create a population of homogenously sized liposomes as determined using NanoSight (Malvern Instruments). Sonicated liposomes were pooled, aliquoted again, snap-frozen and stored at −80°C.
2 mM liposomes were mixed with 2 µM recombinant protein in 50 µl reconstitution buffer. The suspension was incubated shaking at 450 rpm for 30 min at 37°C. Liposomes with bound protein were sedimented by ultracentrifugation at 100,000 g for 30 min at 25°C. Liposome pellet was washed with 50 µl of reconstitution buffer and sedimented again at 100,000 g for 30 min at 25°C. The pellet was resuspended in 10 µl reconstitution buffer, resolved by SDS-PAGE and analyzed by CBB staining. Images were acquired with ChemiDoc MP imaging system and quantified using Image Lab 5.0 software (both from Bio-Rad Laboratories). For competition assays, indicated amounts of C-terminal HSP70 were preincubated with 2 µM CHIP for 20 min at 37°C prior to co-sedimentation.

CHIP [4] = test: Liposome floatation assay; assay type: binding, Human; conditions: 20% PA, 1 mM liposomes, 0.5 µM CHIP, 30 min at 37°C, pH 7.5
Description: as §1
(§2) Liposomes were prepared by mixing 1,2-dioleoyl-sn-glycero-3-phosphocholine (DOPC) with indicated amount (wt/wt) of either 1,2-dipalmitoyl-sn-glycero-3-phosphate (phosphatidic acid) or (wt/wt) 1,2-dipalmitoyl-sn-glycero-3-phosphoinositol-4-phosphate (PI4P) in a 1.5 ml reaction tube (Eppendorf). […] The liposome suspension was subjected to five freeze-thaw cycles in liquid nitrogen to promote unilamellar vesicle formation, aliquoted in 200 µl and pulse-sonicated for 8 s at 45% output with MS72 sonotrode (Bandelin) to create a population of homogenously sized liposomes as determined using NanoSight (Malvern Instruments). […]
1 mM liposomes and 0.5 µM CHIP were incubated in 150 µl reconstitution buffer for 30 min at 37°C. […] Resulting fractions were analyzed by SDS-PAGE and western blotting after loading dilution-corrected amount of respective fractions.

trypsin = test: Protease sensitivity assay (trypsin); assay type: physicochemical; conditions: 0.5 ng/µl trypsin, 37°C, 20% PA-containing liposomes; no significant difference; N = 3
Description: CHIP pelleted with 20% PA-containing liposomes was subjected to 0.5 ng/µl trypsin treatment at 37°C. Hydrolysis was stopped by adding hot reducing SDS sample buffer and boiling for 5 min. Samples were analyzed by SDS-PAGE and CBB staining. For controls without liposomes, protein was used at concentration assuming 30% binding to liposomes. Images were acquired with ChemiDoc MP imaging system and quantified using Image Lab 5.0 software (both from Bio-Rad Laboratories).

[5] = Liposome pelleting assay, binding of CHIP and truncated variants to liposomes; conditions: 20% PA- or 5% PI4P-containing DOPC liposomes, 2 mM liposomes, 2 µM CHIP, 37°C; up to
Description: (§3) For mammalian expression of EGFP, the expression vector pEGFP-N1 from Clontech (Mountain View, CA) was used. N-terminal EGFP-CHIP fusion protein was constructed by cloning human CHIP coding sequence in pEGFP-C2 vector (Clontech) using HindIII and BamHI restriction sites. A fusion between the N-terminalβ−1,4-galactosyltransferase1 and EGFP was used as a marker of the Golgi apparatus, farnesylated EGFP as a marker of plasma membrane (both constructs from Clontech). Untagged and 3xFLAG-tagged human CHIP for mammalian expression were constructed in pCMV-10 vector (Sigma-Aldrich). HSP70 was amplified from human cDNA and cloned into pcDNA3. 1 expression vector without a tag. HSP70 lacking the last amino acid (HSP70ΔD) was prepared by site-directed mutagenesis. Vectors of full-length CHIP, UbcH5a and mutant NQO1 for bacterial expression were prepared as described ([Martínez-Limón et al., 2016]). The TPR domain bacterial expression vector (TPR) was created by exchanging glutamate152 codon to a stop codon in the full-length CHIP vector. CHIP without TPR domain (ΔTPR) was cloned by deleting the sequence between serine25 and argininge130 by means of PCR. […]
as §2
2 mM liposomes were mixed with 2 µM recombinant protein in 50 µl reconstitution buffer. […] The pellet was resuspended in 10 µl reconstitution buffer, resolved by SDS-PAGE and analyzed by CBB staining. Images were acquired with ChemiDoc MP imaging system and quantified using Image Lab 5.0 software (both from Bio-Rad Laboratories). […]

[6] = test system: NQO1 P187S mutant; ubiquitin; CHIP; test: In vitro ubiquitylation on liposomes; assay type: biochemical; conditions: 37°C 1 hr
Description: In vitro ubiquitylation was performed in 50 mM Tris HCl pH 7.5, 50 mM NaCl, 10 mM MgCl2, 2 mM DTT and 2 mM ATP. Reactions contained 100 nM UBE1 (Boston Biochem, Cambridge, MA), 2 µM either UbcH5a or Uev1A/Ubc13, 5 µM CHIP and […] ubiquitin from bovine erythrocytes (Sigma-Aldrich). 2.5 µM NQO1 P187S mutant was added as substrate where indicated. Reactions proceeded at 37°C for 1 hr and then were stopped by adding reducing SDS sample buffer and boiling samples at 95°C for 5 min. Protein modification was analyzed by SDS-PAGE and immunoblotting using antibodies against NQO1, CHIP and ubiquitin. Where indicated, CHIP pelleted with 20% PA-containing liposomes was used instead of soluble protein.

[7] = Lipid-binding assay, binding of CHIP variants to phospholipids; conditions: 0.5 µg/ml protein, 1 hr at RT
Description: as §3
Membrane-immobilized lipids (Membrane lipid strips P-6002 and PIP strips P-6001) were purchased from Echelon Research Laboratories. […] Strips were washed and bound proteins were detected using anti-C-CHIP antibody. […]

C[C@H](CCC(=O)O)[C@H]1CC[C@H]2[C@@H]3CC[C@@H]4C[C@H](O)CC[C@]4(C)[C@H]3C[C@H](O)[C@]12C [deoxycholate, sodium deoxycholate]
ubiquitin ligase activity of CHIP (CHIP [1]): reversibly inactivate its ubiquitin ligase activity | monomerization of CHIP (recombinant CHIP): monomerizes CHIP in vitro

CCCCCCCCCCCCCCCC(=O)OC[C@H](COP(=O)(O)O)OC(=O)CCCCCCCCCCCCCCC [PA, 1,2-dipalmitoyl-sn-glycero-3-phosphate]
CHIP binding to phospholipid on lipid array (CHIP [2]): CHIP specificity mainly to phosphatidic acid (PA) | CHIP association with DOPC-liposomes (pelleting), 5% PA (CHIP [3]; 5% PA, no significant difference): insufficient to strengthen binding of CHIP onto liposomes; also recorded: insufficient to enhance binding of CHIP to DOPC-liposomes | CHIP association with DOPC-liposomes (pelleting), PA (CHIP [3]; PA-containing liposomes (Figure 2b)): pelleting was increased in the presence of PA; also recorded: strongly | CHIP cofloatation with DOPC liposomes (CHIP [4]): strongly enhanced

CHIP: human recombinant full length CHIP, ubiquitin ligase
sensitivity to proteolysis on liposomes versus in solution (trypsin): does not change its sensitivity to proteolysis | CHIP associated with liposomes, % of input [5]: 50–60% | ubiquitylation of NQO1 and K63 chain formation while attached to liposomes ([6]; 5 µM CHIP or CHIP pelleted with 20% PA-containing liposomes, UbcH5a or Ubc13/Uev1a): remains capable to ubiquitylate the substrate protein NQO1 and form unattached K63-conjugated chains | K63-based ubiquitin polymerization on liposomes versus soluble ([6]; Ubc13/Uev1a, 20% PA-containing liposomes): slightly weaker on liposomes | auto-ubiquitylation on liposomes versus soluble ([6]; UbcH5a, 20% PA-containing liposomes): somewhat stronger on liposomes

B1: m2Δ: CHIP with KRKK to AAAA (221–224 aa) (protein, UniProt Q9UNE7 1-303, looked up, variant K221A R222A K223A K224A)
E3 ubiquitin-protein ligase …: MKGKEEKEGGARLGAGGGSPEKSPSAQELKEQGNRLFVGRKYPEAAACYGRAITRNPLVAVYYTNRALCYLKMQQHEQALADCRRALELDGQSVKAHFFLGQCQLEMESYDEAIANLQRAYSLAKEQRLNFGDDIPSALRIAKKKRWNSIEERRIHQESELHSYLSRLIAAERERELEECQRNHEGDEDDSHVRAQQACIEAKHDKYMADMDELFSQVDEAAAARDIPDYLCGKISFELMREPCITPSGITYDRKDIEEHLQRVGHFDPVTRSPLTQEQLIPNLAMKEVIDAFISENGWVEDY
phospholipid binding of CHIP variant versus wild-type [7]: affects CHIP interaction with phospholipids in vitro
